Where “and” joins values, the source holds several entries; their conditions need not be identical. Equal values may be shown once. Read-outs that look alike come from different tables or passages of the source.
Columns and labels:
OATP1B1 = target: T1, OATP1B1 (Homo sapiens, UniProt Q9Y6L6); assay: Inhibition of OATP1B1-mediated disulfopyrene uptake in A431 cells; format: cell-based; settings: for decrease in the transport activity of OATP1B1 / inhibition of OATP1B1 in words: 25 μM flavonoid; for IC50: disulfopyrene 10 μM, 10 min, HBSS pH 7.4, A431-OATP1B1 cells
T1 construct: expressed in transfected cells; host or cells: A431
T1 sequence (Q9Y6L6 1-691): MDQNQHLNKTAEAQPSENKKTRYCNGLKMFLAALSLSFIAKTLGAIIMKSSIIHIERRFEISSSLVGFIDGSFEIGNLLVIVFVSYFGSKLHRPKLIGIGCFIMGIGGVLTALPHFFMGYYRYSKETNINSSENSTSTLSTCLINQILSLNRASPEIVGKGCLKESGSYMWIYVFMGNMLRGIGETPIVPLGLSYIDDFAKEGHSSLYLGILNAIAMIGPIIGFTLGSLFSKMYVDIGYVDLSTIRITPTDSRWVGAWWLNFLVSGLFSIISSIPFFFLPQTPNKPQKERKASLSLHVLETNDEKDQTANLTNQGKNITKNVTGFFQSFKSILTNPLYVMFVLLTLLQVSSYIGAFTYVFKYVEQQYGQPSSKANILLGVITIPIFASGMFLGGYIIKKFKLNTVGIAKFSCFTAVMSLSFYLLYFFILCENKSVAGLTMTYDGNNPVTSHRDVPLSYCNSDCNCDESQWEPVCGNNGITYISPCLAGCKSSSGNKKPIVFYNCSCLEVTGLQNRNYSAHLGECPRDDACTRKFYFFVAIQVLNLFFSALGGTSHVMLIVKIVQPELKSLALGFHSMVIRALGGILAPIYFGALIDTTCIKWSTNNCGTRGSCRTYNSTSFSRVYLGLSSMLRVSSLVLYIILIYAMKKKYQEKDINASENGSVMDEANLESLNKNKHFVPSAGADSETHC
Procedure: (§1) Human A431 cells overexpressing OATPs (OATP1B1 or OATP2B1) and their mock‐transfected controls were established earlier.[42], [43] The cells were maintained at 37°C with 5% CO2 in Dulbecco's Modified Eagle Medium (DMEM; Thermo Fischer Scientific, Waltham, MA, USA) supplemented with fetal bovine serum (10%), L‐glutamine (2 mM), penicillin (100 units/mL) and streptomycin (100 μg/mL).
(§2) The inhibitory impacts of MYR, AMP, and their sulfate metabolites on OATP1B1 and OATP2B1 were examined using the fluorescent dye substrates disulfopyrene (6,8‐dihydroxy‐1,3‐disulfopyrene) and pyranine, respectively.[42], [43] The day before the transport measurements, A431 cells overexpressing OATP1B1 or OATP2B1 (and their mock‐transfected controls) were seeded onto 96‐well plates at a density of 80 000 cells/well in DMEM (200 μL). Next day, the medium was removed, the cells were washed three times with PBS (pH 7.4, 200 μL) at room temperature, then the cells were pre‐incubated with 50 μL of Hank's Balanced Salt Solution (HBSS, pH 7.4; OATP1B1) or uptake buffer (pH 5.5; OATP2B1) for 5 min at 37°C with or without the flavonoids.[43] The transport reaction was started by adding 50 μL of disulfopyrene‐containing (final concentration: 10 μM) HBSS (OATP1B1 assay), or pyranine‐containing (final concentration: 20 μM) uptake buffer (OATP2B1 assay). After 10 min (OATP1B1) or 15 min (OATP2B1), the transport was stopped by removing the supernatant and washing the cells three times with ice‐cold PBS (200 μL). Then the fluorescence was measured in 200 μL of PBS using an Enspire plate reader (PerkinElmer, Waltham, MA, US) at excitation and emission wavelengths of 460/510 nm. OATP‐dependent transport was determined by subtracting the fluorescence detected in mock control cells from that of OATP‐expressing cells. Transport activity was measured based on the fluorescence signal in the absence of flavonoids (100%). IC50 values were calculated by sigmoidal fitting (Hill1), using the Origin software (version 2018, OriginLab Corporation, Northampton, MA, USA).

OATP2B1 = target: T2, OATP2B1 (Homo sapiens, UniProt O94956); assay: Inhibition of OATP2B1-mediated pyranine uptake in A431 cells; format: cell-based; settings: for inhibition at 15 min, 25 μM: human, A431 cells overexpressing OATP2B1, pH 5.5, probe pyranine, 20 μM, read-out: inhibition / reduction of OATP2B1 transport activity; for inhibition at 15 min, 25 μM / inhibition of OATP2B1 in words: 25 μM flavonoid; for IC50: 15 min, uptake buffer pH 5.5, A431-OATP2B1 cells; for inhibitory strength on OATP2B1 relative to A4′S: ratio of IC50 values
T2 construct: expressed in transfected cells; host or cells: A431
T2 sequence (O94956 1-709): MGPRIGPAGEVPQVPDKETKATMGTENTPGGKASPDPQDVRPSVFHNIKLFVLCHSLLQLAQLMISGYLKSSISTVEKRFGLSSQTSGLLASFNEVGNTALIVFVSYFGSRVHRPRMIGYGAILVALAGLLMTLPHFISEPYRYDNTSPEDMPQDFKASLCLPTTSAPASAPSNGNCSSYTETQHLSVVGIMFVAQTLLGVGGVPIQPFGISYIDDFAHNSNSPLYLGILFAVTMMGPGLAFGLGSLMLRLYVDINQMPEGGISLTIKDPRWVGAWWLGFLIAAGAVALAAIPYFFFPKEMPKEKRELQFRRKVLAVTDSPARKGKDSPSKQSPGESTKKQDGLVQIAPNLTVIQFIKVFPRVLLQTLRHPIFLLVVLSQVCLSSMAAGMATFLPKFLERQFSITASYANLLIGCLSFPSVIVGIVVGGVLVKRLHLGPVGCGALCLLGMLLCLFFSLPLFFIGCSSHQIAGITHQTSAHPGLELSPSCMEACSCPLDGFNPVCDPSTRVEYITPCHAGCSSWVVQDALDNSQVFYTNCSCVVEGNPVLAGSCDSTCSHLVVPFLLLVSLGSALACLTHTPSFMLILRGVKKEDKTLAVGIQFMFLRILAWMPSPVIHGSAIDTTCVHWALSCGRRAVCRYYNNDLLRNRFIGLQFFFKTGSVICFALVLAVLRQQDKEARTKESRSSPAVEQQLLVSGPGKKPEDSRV
Procedure: as §1
as §2, with “(100%).” for “(100%). IC50 values were calculated by sigmoidal fitting (Hill1), using the Origin software (version 2018, OriginLab Corporation, Northampton, MA, USA).”

[1] = pyranine 20 μM, read-out: IC50, OATP2B1

Row | SMILES | decrease in the transport activity of OATP1B1 (OATP1B1) | inhibition at 15 min, 25 μM (OATP2B1) | IC50 (OATP2B1; [1]) | inhibition of OATP1B1 in words (OATP1B1) | IC50 (OATP1B1) | inhibitory strength on OATP1B1 relative to MYR (OATP1B1; ratio of IC50 values) | inhibition of OATP2B1 in words (OATP2B1) | inhibitory strength on OATP2B1 relative to A4′S (OATP2B1) | IC50 (OATP2B1; IC50, OATP2B1, pyranine 20 μM)
1 | O=C1c2c(O)cc(O)cc2OC(c2cc(O)c(OS(=O)(=O)O)c(O)c2)C1O (stereo not shown) [A4′S, ampelopsin‐4′‐O‐sulfate] | ~70% | 90% | 2.15 µM and 2.2 µM | – | – | – | – | – | –
2 | O=c1c(O)c(-c2cc(O)c(O)c(OS(=O)(=O)O)c2)oc2cc(O)cc(O)c12 [M3′S, myricetin‐3′‐O‐sulfate] | – | – | 0.29 µM and 0.3 µM | close to complete inhibition | 1.7 µM and 1.66 µM | four‐fold stronger | almost completely blocked | seven‐fold | –
3 | O=c1c(O)c(-c2cc(O)c(O)c(O)c2)oc2cc(O)cc(O)c12 [MYR, myricetin] | – | – | – | close to complete inhibition | 6.4 µM | – | almost completely blocked | five‐fold | 0.43 µM and 0.4 µM
4 | O=C1c2c(O)cc(O)cc2O[C@H](c2cc(O)c(O)c(O)c2)[C@H]1O [AMP, ampelopsin] | approximately 40% | ~70% | – | – | – | – | – | – | –

— publication PMC11440035, “Interaction of myricetin, ampelopsin (dihydromyricetin), and their sulfate metabolites with serum albumin, cytochrome P450 (CYP2C9, 2C19, and 3A4) enzymes, and organic anion‐transporting polypeptides (OATP1B1 and OATP2B1)” (Pharmacology Research & Perspectives, 2024)
